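Values below derive from 48-hour exposures of cells grown in 96-well plates, with endpoints linearly interpolated between the two concentrations bracketing the appropriate inhibition level. TGI is the concentration that stops growth completely.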
How the values were obtained:
Assay in all cases: NCI tumour cell line growth inhibition, 48 h
786-0 renal = test system: 786-0 renal
A549 NSCLC = test system: A549 NSCLC
ACHN renal = test system: ACHN renal
BT-549 breast = test system: BT-549 breast
CAKI-1 renal = test system: CAKI-1 renal
CCRF-CEM leukemia = test system: CCRF-CEM leukemia
COLO 205 colon = test system: COLO 205 colon
DU-145 prostate = test system: DU-145 prostate
EKVX NSCLC = test system: EKVX NSCLC
HCC-2998 colon = test system: HCC-2998 colon
HCT-116 colon = test system: HCT-116 colon
HCT-15 colon = test system: HCT-15 colon
HL-60(TB) leukemia = test system: HL-60(TB) leukemia
HOP-62 NSCLC = test system: HOP-62 NSCLC
HOP-92 NSCLC = test system: HOP-92 NSCLC
HS 578T breast = test system: HS 578T breast
HT29 colon = test system: HT29 colon
IGROV1 ovarian = test system: IGROV1 ovarian
K-562 leukemia = test system: K-562 leukemia
KM12 colon = test system: KM12 colon
LOX IMVI melanoma = test system: LOX IMVI melanoma
M14 melanoma = test system: M14 melanoma
MALME-3M melanoma = test system: MALME-3M melanoma
MCF7 breast = test system: MCF7 breast
MDA-MB-231 breast = test system: MDA-MB-231 breast
MDA-MB-435 = test system: MDA-MB-435
MDA-N = test system: MDA-N
MOLT-4 leukemia = test system: MOLT-4 leukemia
NCI-H226 lung = test system: NCI-H226 lung
NCI-H23 lung = test system: NCI-H23 lung
NCI-H460 lung = test system: NCI-H460 lung
NCI-H522 lung = test system: NCI-H522 lung
NCI/ADR-RES ovarian = test system: NCI/ADR-RES ovarian
OVCAR-3 ovarian = test system: OVCAR-3 ovarian
OVCAR-4 ovarian = test system: OVCAR-4 ovarian
OVCAR-5 ovarian = test system: OVCAR-5 ovarian
OVCAR-8 ovarian = test system: OVCAR-8 ovarian
PC-3 prostate = test system: PC-3 prostate
RPMI-8226 leukemia = test system: RPMI-8226 leukemia
RXF 393 renal = test system: RXF 393 renal
SF-268 CNS = test system: SF-268 CNS
SF-295 CNS = test system: SF-295 CNS
SF-539 CNS = test system: SF-539 CNS
SK-MEL-2 melanoma = test system: SK-MEL-2 melanoma
SK-MEL-28 melanoma = test system: SK-MEL-28 melanoma
SK-MEL-5 melanoma = test system: SK-MEL-5 melanoma
SK-OV-3 ovarian = test system: SK-OV-3 ovarian
SN12C renal = test system: SN12C renal
SNB-19 CNS = test system: SNB-19 CNS
SNB-75 CNS = test system: SNB-75 CNS
SR leukemia = test system: SR leukemia
SW-620 colon = test system: SW-620 colon
T-47D breast = test system: T-47D breast
TK-10 renal = test system: TK-10 renal
U251 CNS = test system: U251 CNS
UACC-257 melanoma = test system: UACC-257 melanoma
UACC-62 melanoma = test system: UACC-62 melanoma
UO-31 renal = test system: UO-31 renal
A498 renal = test system: A498 renal

Measured: TGI

COc1ccc(C(C#N)NC23CC4CC(CC(C4)C2)C3)cc1 (stereo not given)
> 100 µM: 786-0 renal | A549 NSCLC | ACHN renal | BT-549 breast | CAKI-1 renal | CCRF-CEM leukemia | COLO 205 colon | DU-145 prostate | EKVX NSCLC | HCC-2998 colon | HCT-116 colon | HCT-15 colon | HL-60(TB) leukemia | HOP-62 NSCLC | HOP-92 NSCLC | HS 578T breast | HT29 colon | IGROV1 ovarian | K-562 leukemia | KM12 colon | LOX IMVI melanoma | M14 melanoma | MALME-3M melanoma | MCF7 breast | MDA-MB-231 breast | MDA-MB-435 | MDA-N | MOLT-4 leukemia | NCI-H226 lung | NCI-H23 lung | NCI-H460 lung | NCI-H522 lung | NCI/ADR-RES ovarian | OVCAR-3 ovarian | OVCAR-4 ovarian | OVCAR-5 ovarian | OVCAR-8 ovarian | PC-3 prostate | RPMI-8226 leukemia | RXF 393 renal | SF-268 CNS | SF-295 CNS | SF-539 CNS | SK-MEL-2 melanoma | SK-MEL-28 melanoma | SK-MEL-5 melanoma | SK-OV-3 ovarian | SN12C renal | SNB-19 CNS | SNB-75 CNS | SR leukemia | SW-620 colon | T-47D breast | TK-10 renal | U251 CNS | UACC-257 melanoma | UACC-62 melanoma | UO-31 renal

CC(C)C(O)(C(C)C)C(C)C
> 100 µM: 786-0 renal | A498 renal | A549 NSCLC | ACHN renal | BT-549 breast | CAKI-1 renal | CCRF-CEM leukemia | COLO 205 colon | DU-145 prostate | EKVX NSCLC | HCT-116 colon | HCT-15 colon | HL-60(TB) leukemia | HOP-62 NSCLC | HOP-92 NSCLC | HS 578T breast | HT29 colon | IGROV1 ovarian | K-562 leukemia | KM12 colon | LOX IMVI melanoma | M14 melanoma | MALME-3M melanoma | MCF7 breast | MDA-MB-231 breast | MDA-MB-435 | MDA-N | MOLT-4 leukemia | NCI-H226 lung | NCI-H23 lung | NCI-H460 lung | NCI-H522 lung | NCI/ADR-RES ovarian | OVCAR-3 ovarian | OVCAR-4 ovarian | OVCAR-5 ovarian | OVCAR-8 ovarian | PC-3 prostate | RPMI-8226 leukemia | RXF 393 renal | SF-268 CNS | SF-295 CNS | SF-539 CNS | SK-MEL-2 melanoma | SK-MEL-28 melanoma | SK-MEL-5 melanoma | SK-OV-3 ovarian | SN12C renal | SNB-19 CNS | SNB-75 CNS | SR leukemia | T-47D breast | TK-10 renal | U251 CNS | UACC-257 melanoma | UACC-62 melanoma | UO-31 renal

Cc1c(-c2ccccc2)cc(O)c2nc3ccccc3n12
> 100 µM: 786-0 renal | A498 renal | A549 NSCLC | ACHN renal | BT-549 breast | CAKI-1 renal | CCRF-CEM leukemia | COLO 205 colon | DU-145 prostate | EKVX NSCLC | HCC-2998 colon | HCT-15 colon | HL-60(TB) leukemia | HOP-62 NSCLC | HOP-92 NSCLC | HS 578T breast | HT29 colon | IGROV1 ovarian | K-562 leukemia | KM12 colon | LOX IMVI melanoma | M14 melanoma | MALME-3M melanoma | MCF7 breast | MDA-MB-231 breast | MDA-MB-435 | MDA-N | MOLT-4 leukemia | NCI-H226 lung | NCI-H23 lung | NCI-H460 lung | NCI-H522 lung | NCI/ADR-RES ovarian | OVCAR-3 ovarian | OVCAR-4 ovarian | OVCAR-5 ovarian | OVCAR-8 ovarian | PC-3 prostate | RPMI-8226 leukemia | RXF 393 renal | SF-295 CNS | SF-539 CNS | SK-MEL-28 melanoma | SK-MEL-5 melanoma | SN12C renal | SNB-19 CNS | SNB-75 CNS | SR leukemia | SW-620 colon | T-47D breast | TK-10 renal | U251 CNS | UACC-257 melanoma | UACC-62 melanoma | UO-31 renal
